The values that follow come from publication PMC12282428 (Virologica Sinica, 2025).

For this test, the target named is T1, PEDV RdRp (Nsp12) (Porcine epidemic diarrhea virus, UniProt K4NS01).
T1 sequence (K4NS01 4101-5027): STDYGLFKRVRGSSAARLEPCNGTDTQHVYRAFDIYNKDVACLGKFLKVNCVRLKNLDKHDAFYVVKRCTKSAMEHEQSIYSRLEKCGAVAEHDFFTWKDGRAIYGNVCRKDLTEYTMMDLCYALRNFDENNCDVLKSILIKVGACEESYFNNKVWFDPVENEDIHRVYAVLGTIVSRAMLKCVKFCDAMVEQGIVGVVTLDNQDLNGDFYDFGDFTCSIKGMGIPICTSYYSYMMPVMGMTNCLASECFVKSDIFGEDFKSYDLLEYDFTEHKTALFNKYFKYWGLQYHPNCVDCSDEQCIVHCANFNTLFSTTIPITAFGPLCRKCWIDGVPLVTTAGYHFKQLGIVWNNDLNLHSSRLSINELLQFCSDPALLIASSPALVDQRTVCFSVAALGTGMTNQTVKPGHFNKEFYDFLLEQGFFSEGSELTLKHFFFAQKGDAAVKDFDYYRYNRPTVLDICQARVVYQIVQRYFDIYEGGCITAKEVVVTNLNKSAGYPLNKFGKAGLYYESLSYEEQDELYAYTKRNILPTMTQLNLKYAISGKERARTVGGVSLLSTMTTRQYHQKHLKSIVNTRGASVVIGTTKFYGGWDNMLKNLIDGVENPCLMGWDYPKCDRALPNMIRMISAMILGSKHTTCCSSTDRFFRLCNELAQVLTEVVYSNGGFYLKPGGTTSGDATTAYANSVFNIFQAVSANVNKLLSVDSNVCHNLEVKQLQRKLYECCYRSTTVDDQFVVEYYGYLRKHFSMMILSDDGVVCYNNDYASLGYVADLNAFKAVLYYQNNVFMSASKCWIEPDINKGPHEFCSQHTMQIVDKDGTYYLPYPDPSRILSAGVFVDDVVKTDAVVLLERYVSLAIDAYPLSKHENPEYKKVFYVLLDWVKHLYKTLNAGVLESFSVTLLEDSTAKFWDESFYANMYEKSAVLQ
Nature of the test: CoV-RdRp-Gluc luciferase reporter assay in transfected HEK-293T cells. Type of test: cell-based. Background: A reporter such as luciferase makes a cellular process visible.

The term IC50 denotes the concentration at which inhibition is half-maximal. High values mean weaker potency, low ones greater potency. As for `CC(C)/N=c1\cc2n(-c3ccc(Cl)cc3)c3ccccc3nc-2cc1Nc1ccc(Cl)cc1` [clofazimine], the IC50 came to 136 nM.
